Consider 13 molecules from PubChem BioAssay (NCI).

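Values below derive from 48-hour exposures of cells grown in 96-well plates, with endpoints linearly interpolated between the two concentrations bracketing the appropriate inhibition level. At the GI50, growth is halved. Definition used: TGI = concentration required for complete inhibition of growth.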 Where a SMILES comes first, the peptide text is derived from it. The star is where a group is joined. Bn = c1ccc(C*)cc1 Where only a bound is given, the exact number is not on record here.

Test systems include A498 renal; BT-549 breast; HT29 colon; NCI-H522 lung; OVCAR-8 ovarian; SN12C renal; TK-10 renal; UACC-62 melanoma.
Test in all cases: inhibition of tumour cell growth, NCI panel, 48 h

For the molecule `N#Cc1c(C#N)c(-c2ccccc2)n(-c2ccccc2)c1N`, the TGI in the experiment with A498 renal, with BT-549 breast, with HT29 colon, with NCI-H522 lung, in the experiment with OVCAR-8 ovarian and in the experiment on SN12C renal was > 100 µM throughout. Besides, the TGI in the experiment with TK-10 renal and in the experiment with UACC-62 melanoma was > 100 µM each time.

For `CC(C)CCn1nc(N)c2nc3ccccc3nc21`, the TGI in the experiment with A498 renal, in the experiment with BT-549 breast, in the experiment with HT29 colon, in the experiment on NCI-H522 lung, with OVCAR-8 ovarian and in the experiment on SN12C renal was > 100 µM throughout. Further, the TGI in the experiment on TK-10 renal and in the experiment with UACC-62 melanoma was > 100 µM each time.

Take `COc1ccc(/C=N/N2C(=O)c3c(N)c(C#N)c(-c4ccccc4)c(-c4ccccc4)c3C2=O)cc1`: the TGI in the experiment with A498 renal, with BT-549 breast, in the experiment with NCI-H522 lung, in the experiment with OVCAR-8 ovarian, in the experiment with SN12C renal and in the experiment with TK-10 renal was > 100 µM each time. Besides, the TGI in the experiment on UACC-62 melanoma was > 100 µM.

As to `COC(=O)C(CC(C)C)NC(=O)C(N)Cc1ccc(OCc2ccccc2)cc1` (centres undefined) (H-Tyr(Bn)-Leu-OMe; configuration not given here), the TGI with A498 renal, in the experiment with BT-549 breast, with HT29 colon, with NCI-H522 lung, in the experiment on OVCAR-8 ovarian and in the experiment with SN12C renal was > 10 µM throughout. Also, the TGI in the experiment on TK-10 renal and with UACC-62 melanoma was > 10 µM throughout.

Take `CN(C)P(=O)(Oc1occc1C(O)Cc1ccccc1)N(C)C` (centres undefined): the TGI in the experiment with A498 renal, in the experiment with BT-549 breast, in the experiment on NCI-H522 lung, with OVCAR-8 ovarian, with SN12C renal and in the experiment with TK-10 renal was > 100 µM in each case.

On to `COc1ccc(-c2csc(NC(=O)CSc3nc(C)c(-c4ccccc4)n3Nc3ccccc3)n2)cc1`, for which the GI50 with A498 renal is 31.2 µM; in the experiment on BT-549 breast, 8.93 µM; with NCI-H522 lung, 3.35 µM; with OVCAR-8 ovarian, 3.48 µM; in the experiment on SN12C renal, 4.03 µM; with TK-10 renal, > 100 µM. Further, the GI50 in the experiment with UACC-62 melanoma is 7.35 µM. The TGI in the experiment with A498 renal, with BT-549 breast, with NCI-H522 lung, with OVCAR-8 ovarian, with SN12C renal and in the experiment with TK-10 renal was > 100 µM each time. Moreover, the TGI in the experiment with UACC-62 melanoma is > 100 µM.

In the case of `Cc1cn([C@H]2C[C@](C)(CO)N(C)O2)c(=O)[nH]c1=O`, the TGI in the experiment with A498 renal, in the experiment on BT-549 breast, with HT29 colon, with NCI-H522 lung, in the experiment with SN12C renal and with TK-10 renal was > 100 µM in each case. Also, the TGI in the experiment with UACC-62 melanoma is > 100 µM.

For `COC(=O)[C@H](Cc1ccccc1)NC(=O)c1ccc(CNC(=O)/C=C/c2cccc(Oc3ccccc3)c2)cc1`, the TGI was 51.7 µM with A498 renal; > 100 µM in the experiment on BT-549 breast; > 100 µM in the experiment with HT29 colon; > 100 µM with OVCAR-8 ovarian; 75.9 µM in the experiment on SN12C renal; 92.5 µM with TK-10 renal. Also, the TGI in the experiment with UACC-62 melanoma was determined as 24 µM.

Consider `COc1cc2c(cc1OC)C13CC[N+]4(C)CC5=CCOC6CC(=O)N2C1C6C5CC34[O-]` (centres undefined), for which the TGI in the experiment with A498 renal, in the experiment with BT-549 breast, in the experiment on NCI-H522 lung, with OVCAR-8 ovarian, in the experiment with SN12C renal and in the experiment with TK-10 renal was > 100 µM each time. For the same molecule, in the experiment on UACC-62 melanoma, the TGI was > 100 µM.

Regarding `CCCCN(CCCC)C(=C(C(Cl)=C(Cl)Cl)[N+](=O)[O-])N(CCCC)CCCC`, the TGI in the experiment on A498 renal, in the experiment on BT-549 breast, in the experiment with NCI-H522 lung, with SN12C renal, in the experiment with TK-10 renal and in the experiment with UACC-62 melanoma was > 100 µM in each case.

In the case of `OC1(c2ccc(Cl)cc2)c2ccc(CN3CCCC3)cc2C2=NCCN21` (centres undefined), the TGI was found to be 25.8 µM in the experiment on A498 renal; 21.3 µM with BT-549 breast; 26.7 µM in the experiment with HT29 colon; 29.9 µM with OVCAR-8 ovarian; 31.7 µM in the experiment on SN12C renal; 17.4 µM with TK-10 renal. In the experiment with UACC-62 melanoma, this molecule registered a TGI of 28.1 µM.

As for `CC/C(Cl)=N\OC(=O)Nc1ccc(F)c([N+](=O)[O-])c1`, the TGI was 39.4 µM in the experiment on A498 renal; 31.5 µM in the experiment on BT-549 breast; > 57.8 µM in the experiment with HT29 colon; 32.8 µM in the experiment with OVCAR-8 ovarian; 47.1 µM in the experiment on SN12C renal; 26.1 µM with TK-10 renal. The same molecule had a TGI in the experiment on UACC-62 melanoma of 35.8 µM.

On to `O=C(CCc1cccc(O)c1)NCCCNC(=O)CCc1cccc(O)c1`, for which the TGI in the experiment with A498 renal, in the experiment on BT-549 breast, in the experiment with HT29 colon, with NCI-H522 lung, in the experiment on OVCAR-8 ovarian and in the experiment on SN12C renal was > 100 µM each time. Also, in the experiment with UACC-62 melanoma, the TGI is > 100 µM.
